Counter-ions that a name gives are not always drawn.
Experiments:
CCK2 receptor = molecular target: T1, CCK2 receptor (Homo sapiens, UniProt P32239); experiment: Binding Assay: competition with [125I]-BH-CCK-8S in HEKZFP cell membranes; conditions: 60 min at 21±3° C., Cheng-Prusoff
T1 construct: Membranes were prepared from the HEKZFP cells after induction; endogenous in cells
T1 sequence (P32239 1-447): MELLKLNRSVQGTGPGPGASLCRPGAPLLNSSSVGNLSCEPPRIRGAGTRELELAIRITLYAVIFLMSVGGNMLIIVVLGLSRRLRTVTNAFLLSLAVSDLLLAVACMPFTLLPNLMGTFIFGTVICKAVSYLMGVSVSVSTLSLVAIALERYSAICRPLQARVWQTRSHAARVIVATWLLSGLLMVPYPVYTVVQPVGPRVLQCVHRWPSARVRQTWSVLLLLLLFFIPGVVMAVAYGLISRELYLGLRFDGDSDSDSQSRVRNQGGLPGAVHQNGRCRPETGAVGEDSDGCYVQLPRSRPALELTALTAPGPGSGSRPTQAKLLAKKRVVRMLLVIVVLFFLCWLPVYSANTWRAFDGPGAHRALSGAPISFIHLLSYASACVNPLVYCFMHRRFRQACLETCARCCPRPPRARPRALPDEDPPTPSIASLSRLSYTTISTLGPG
Protocol: Zinc Finger Proteins (ZFP) specific for the CCK2R gene were identified by Sangamo Biosciences. The ZFP domain was fused with the herpes simplex virus VP16 activation domain, and the fusion protein was subsequently cloned into the pcDNA3 mammalian expression vector (Invitrogen, San Diego, Calif.). Tet-inducible cell lines expressing the coding region from the ZFP vector were created using the T-REx-293™ cell line (Invitrogen). After 2 weeks of selection in culture medium containing […] Zeocin (Invitrogen), sixty drug-resistant stable clones were isolated and analyzed for ZFP expression as well as CCK2R induction upon addition of doxycycline to the culture medium. The cell line with the most appropriate CCK2R ZFP construct was used in all further assays and was termed the HEKZFP cell line.
HEKZFP cells were grown in DMEM supplemented with L-glutamine (2 mM), penicillin (50 units/mL) and streptomycin (50 μg/mL) and 10% FBS (v/v). HEKZFP cells were treated with […] doxycycline (Sigma-Aldrich, MO; USA) for 2 days to de-repress the tet-regulated expression of the CCK2 receptor selective zinc finger proteins and were harvested using a rubber cell scraper.
Membranes were prepared from the HEKZFP cells after induction. Frozen cell pellets (−40° C.) were thawed in 14 mL of buffer A (10 mM HEPES, 130 mM NaCl, 4.7 mM KCl, 5 mM MgCl, 1 mM EGTA and 15.4 mg/100 mL bacitracin at pH 7.2), adapted from E. A. Harper et al. (Br. J. Pharmacol. (1996) 118(7):1717-1726). The thawed pellets were homogenized using a Polytron PT-10 (7×1 s). The homogenates were centrifuged for 5 min at 1500 rpm (600×g), and the resulting pellets were discarded. The supernatants were re-centrifuged in order to collect the receptor-membrane pellets (25 min 15,000 rpm; 39,000×g), which were re-suspended in buffer A.
All assays were conducted in 96-well plate (GF/B millipore filter plates) using buffer A. For the optimal cell number determination experiments, cells in concentrations ranging from 2.5×10^5 to 12.5×10^5 cells/well were incubated with 20 pM [^125I]-BH-CCK-8S (50 μL 60 pM) solution) in a total volume of 150 μL. Total binding of [^125I]-BH-CCK-8S was determined in the presence of 15 μL of buffer A. Non-specific binding of [^125I]-BH-CCK-8S was determined in the presence of 15 μL of 10 μM YF476, a CCK-2 receptor selective antagonist that is structurally unrelated to the radioligand [^125I]-BH-CCK-8S. The assay preparation was incubated for 1 h at 21±3° C., and then the assay was terminated by rapid filtration of the preparation under reduced pressure. The loaded filters were washed three times using undiluted PBS (100 μL), and then 100 μL of scintillation fluid was added to the filter plate. Bound radioactivity was determined using a Topcount (Packard BioScience, Meriden, Conn.) with a count time of 1 min. From these experiments a cell concentration of 1 pellet in 15 mL of buffer was chosen for use in other assays. To validate the radioligand concentration and incubation time for the assay, saturation and kinetic binding studies were also conducted (see M. F. Morton, The Pharmacological Characterization of Cholecystokinin Receptors in the Human Gastrointestinal Tract. PhD Thesis, University of London, 2000). […] The assay was then terminated according to the procedure outlined above.
The pKi values were determined using the equation of Y.-C. Cheng and W. H. Prusoff (Biochem. Pharmacol., 1973, 22(23):3099-3108):
To circumvent problems associated with computer-assisted data analysis of compounds with low affinity, the data obtained in the current study were weighted according to a method described by Morton. In brief, 100% and 0% specific binding were defined independently using total binding and binding obtained in the presence of a high concentration of the reference antagonist, 2-NAP.

SMILES | Ki (CCK2 receptor) | melting point | pKi (CCK2 receptor)
O=C(c1ccc(-c2cccs2)cc1NS(=O)(=O)c1cccc2nsnc12)N1CCCCC1 [Example 22, Benzo[1,2,5]thiadiazole-4-sulfonic acid [2-(piperidine-1-carbonyl)-5-thiophen-2-yl-phenyl]-amide] | 200 nM |  | 
CC(C)c1ccc(C(=O)N2CCCCC2)c(NS(=O)(=O)c2cccc3nsnc23)c1 [Example 37, Benzo[1,2,5]thiadiazole-4-sulfonic acid [5-isopropyl-2-(piperidine-1-carbonyl)-phenyl]-amide] |  | 125 to 127 °C | 
O=C(c1ccc(I)cc1NS(=O)(=O)c1cccc2nsnc12)N1CCOCC1 [Example 138, Benzo[1,2,5]thiadiazole-4-sulfonic acid [5-iodo-2-(morpholine-4-carbonyl)-phenyl]-amide] |  |  | 7.5
O=C(c1ccc([N+](=O)[O-])cc1NS(=O)(=O)c1cccc2nsnc12)N1CCCCC1 [Example 2, Benzo[1,2,5]thiadiazole-4-sulfonic acid [5-nitro-2-(piperidine-1-carbonyl)-phenyl]-amide] |  |  | 6.8
O=C(c1ccc(Cl)cc1NS(=O)(=O)c1cccc2nsnc12)N1CCSC1 [Example 79, Benzo[1,2,5]thiadiazole-4-sulfonic acid [5-chloro-2-(thiazolidine-3-carbonyl)-phenyl]-amide] |  |  | 7.1
CCCCNC(=O)c1ccc(Cl)cc1NS(=O)(=O)c1cccc2nsnc12 [Example 59, 2-(Benzo[1,2,5]thiadiazole-4-sulfonylamino)-N-butyl-4-chloro-benzamide] | 631 nM |  | 
CN(C)CC(c1ccccc1)N(C)C(=O)c1ccc(Cl)cc1NS(=O)(=O)c1cccc2nsnc12 (stereo not drawn) [Example 48, 2-(Benzo[1,2,5]thiadiazole-4-sulfonylamino)-4-chloro-N-(2-dimethylamino-1-phenyl-ethyl)-N-methylbenzamide TFA salt] | 398 nM |  | 
CON(C)C(=O)c1ccc(Br)cc1NS(=O)(=O)c1cccc2nsnc12 [Example 117, 2-(Benzo[1,2,5]thiadiazole-4-sulfonylamino)-4-bromo-N-methoxy-N-methyl-benzamide] | 398 nM |  | 
CC1CCCCN1C(=O)c1ccc(Cl)cc1NS(=O)(=O)c1cccc2nsnc12 (stereo not drawn) [Example 70, Benzo[1,2,5]thiadiazole-4-sulfonic acid [5-chloro-2-(2-methyl-piperidine-1-carbonyl)-phenyl]-amide] |  |  | 7.5
O=C(c1cc(Cl)c(Cl)cc1NS(=O)(=O)c1cccc2nsnc12)N1CCCCC1 [Example 36, Benzo[1,2,5]thiadiazole-4-sulfonic acid [4,5-dichloro-2-(piperidine-1-carbonyl)-phenyl]-amide] |  | 178 to 179 °C | 7.8

More lines, in order of falling Ki (CCK2 receptor), values ahead:

Ki (CCK2 receptor) | melting point | pKi (CCK2 receptor) | SMILES
126 nM |  |  | C[C@H](c1ccccc1)N(C)C(=O)c1cc(Cl)ccc1NS(=O)(=O)c1cccc2nsnc12 [Example 118, (R)-2-(Benzo[1,2,5]thiadiazole-4-sulfonylamino)-5-chloro-N-methyl-N-(1-phenyl-ethyl)-benzamide]
126 nM |  |  | CN(C(=O)c1ccc(Cl)cc1NS(=O)(=O)c1cccc2nsnc12)c1ccccc1 [Example 58, 2-(Benzo[1,2,5]thiadiazole-4-sulfonylamino)-4-chloro-N-methyl-N-phenyl-benzamide]
100 nM |  |  | O=C(c1cc2ccccc2cc1NS(=O)(=O)c1cccc2nsnc12)N1CCCCC1 [Example 4, Benzo[1,2,5]thiadiazole-4-sulfonic acid [3-(piperidine-1-carbonyl)-naphthalen-2-yl]-amide]
25.1 nM |  |  | Cc1ccc(C(=O)N[C@H](C)c2ccc(F)cc2F)c(NS(=O)(=O)c2cccc3nsnc23)c1 [Example 167, (R)-2-(Benzo[1,2,5]thiadiazole-4-sulfonylamino)-N-[1-(2,4-difluoro-phenyl)-ethyl]-4-methyl-benzamide]
25.1 nM |  |  | C[C@@H](NC(=O)c1ccc(Br)cc1NS(=O)(=O)c1cccc2nsnc12)c1ccc(F)cc1F [Example 155]
15.8 nM |  |  | CN(Cc1ccc(F)cc1F)C(=O)c1ccc(Br)cc1NS(=O)(=O)c1cccc2nsnc12 [Example 111, 2-(Benzo[1,2,5]thiadiazole-4-sulfonylamino)-4-bromo-N-(2,4-difluoro-benzyl)-N-methyl-benzamide]
10 nM |  |  | CC(c1ccc(F)cc1)N(C)C(=O)c1ccc(I)cc1NS(=O)(=O)c1cccc2nsnc12 (stereo not drawn) [Example 105, 2-(Benzo[1,2,5]thiadiazole-4-sulfonylamino)-N-[1-(4-fluoro-phenyl)-ethyl]-4-iodo-N-methyl-benzamide]
7.94 nM |  |  | C[C@H](c1ccccc1)N(C)C(=O)c1ccc(C(F)(F)F)cc1NS(=O)(=O)c1cccc2nsnc12 [Example 195, (R)-2-(Benzo[1,2,5]thiadiazole-4sulfonylamino)-N-methyl-N-(1-phenyl-ethyl)-4-trifluoromethyl-benzamide]
5.01 nM |  |  | CC(c1ccc(F)cc1)N(C)C(=O)c1ccc(Br)cc1NS(=O)(=O)c1cccc2nsnc12 (stereo not drawn) [Example 112, 2-(Benzo[1,2,5]thiadiazole-4-sulfonylamino)-4-bromo-N-[1-(4-fluoro-phenyl)-ethyl]-N-methyl-benzamide]
3.98 nM |  |  | O=C(c1ccc(I)cc1NS(=O)(=O)c1cccc2nsnc12)N1CCCCC1 [Example 6, Benzo[1,2,5]thiadiazole-4-sulfonic acid [5-iodo-2-(piperidine-1-carbonyl)-phenyl]-amide]
